# Results reported in patent US20230351587A1, “METHODS AND SYSTEMS FOR PREDICTING NEURODEGENERATIVE DISEASE STATE” (New York Stem Cell Foundation, Inc., priority 2020, published 2023).
# Tested on: healthy, LRRK2, and sporadic PD cells
# Assay: Relative distance between treated cell groups and 0.16% DMSO control (morphological profiles)
# Format: cell-based, human
# Details: vs 0.16% DMSO; tile embeddings, single cell embeddings and feature vector models; three increasing doses; FIGS. 13A-13C
# Experimental: In this example, the same automated platform as described above in Examples 1 and 2 was implemented to morphologically profile large collections of cells that were treated using any of a number of perturbations. Example perturbations include bafilomycin, carbonyl cyanide m-chlorophenyl hydrazone (CCCP), MG312, rotenone, valinomycin as well as control groups (untreated and 0.16% DMSO). Specifically, healthy or PD cells of known subtype (e.g., LRKK2 subtype or sporadic subtype) were cultured in vitro and treated with varying doses of the perturbations. For example, for bafilomycin, treatments included 15.63 nM, 31.25 nM, and 62.5 nM bafilomycin. For CCCP, the treatments included 390.5 nM, 781 nM, and 1562 nM. For MG312, the treatments included 234.38 nM, 468.75 nM, and 937.5 nM. For rotenone, the treatments included 7.81 nM, 15.63 nM, and 31.25 nM. For valinomycin, the treatments included 3.91 nM, 7.81 nM, and 15.63 nM.
# Following in vitro treatment of healthy cells and PD subtype cells using the aforementioned concentrations of perturbagens, the cells were imaged using the automated imaging platform and subsequently analyzed using predictive models. In particular, three predictive models were implemented: 1) predictive model including tile embeddings, 2) predictive model including single cell embeddings, and 3) predictive model including extracted features (e.g., CellProfiler features). […]
smiles,measurement,value
"CO/C1=C\C(C)=C\[C@@H](C)[C@@H](O)[C@@H](C)C/C(C)=C/C=C/[C@H](OC)[C@@H]([C@@H](C)[C@@H](O)[C@H](C)[C@@]2(O)C[C@@H](O)[C@H](C)[C@@H](C(C)C)O2)OC1=O [Bafilomycin, bafilomycin]",relative distance between treated cell groups in comparison to controls,increase in distance in response to increasing dose
